Assay results reported in ChEMBL document CHEMBL1143329, “Discovery and SAR of benzyl phenyl ethers as inhibitors of bacterial phenylalanyl-tRNA synthetase” (Bioorg Med Chem Lett, 2009).
In brackets after ≈: the same amount, converted by molar mass.

Legend:
[1] = Inhibition of Haemophilus influenzae phenylalanyl-tRNA synthetase
[2] = Inhibition of Streptococcus pneumoniae phenylalanyl-tRNA synthetase
Haemophilus influenzae [3] = test: Antibacterial activity against wild type Haemophilus influenzae; assay type: functional
Haemophilus influenzae [4] = test: Antibacterial activity against AcrA pump deficient Haemophilus influenzae; assay type: functional
Streptococcus pneumoniae = test: Antibacterial activity against wild type Streptococcus pneumoniae; assay type: functional
[5] = Membrane permeability by PAMPA; assay type: ADME; settings: for Papp: read-out: Activity
Cytochrome P450 2C9 = Cytochrome P450 2C9 (Homo sapiens, UniProt P11712); test: Inhibition of human CYP2C9 at 3 uM; assay type: ADME
[6] = biological target: Voltage-gated inwardly rectifying potassium channel KCNH2 (Homo sapiens, UniProt Q12809); test: Displacement of [3H]dofetilide from human ERG channel
Cytochrome P450 2D6 = Cytochrome P450 2D6 (Homo sapiens, UniProt P10635); test: Inhibition of human CYP2D6 at 3 uM; assay type: ADME
Cytochrome P450 3A4 = Cytochrome P450 3A4 (Homo sapiens, UniProt P08684); test: Inhibition of human CYP3A4 at 3 uM; assay type: ADME
[7] = Apparent intrinsic clearance in human liver microsomes; assay type: ADME, Microsome
Cytochrome P450 1A2 = biological target: T1, Cytochrome P450 1A2 (Homo sapiens, UniProt P05177); test: (§1) Inhibition of human CYP1A2 at 3 uM; assay type: ADME; settings: 3 µM
T1 sequence (P05177 whole entry): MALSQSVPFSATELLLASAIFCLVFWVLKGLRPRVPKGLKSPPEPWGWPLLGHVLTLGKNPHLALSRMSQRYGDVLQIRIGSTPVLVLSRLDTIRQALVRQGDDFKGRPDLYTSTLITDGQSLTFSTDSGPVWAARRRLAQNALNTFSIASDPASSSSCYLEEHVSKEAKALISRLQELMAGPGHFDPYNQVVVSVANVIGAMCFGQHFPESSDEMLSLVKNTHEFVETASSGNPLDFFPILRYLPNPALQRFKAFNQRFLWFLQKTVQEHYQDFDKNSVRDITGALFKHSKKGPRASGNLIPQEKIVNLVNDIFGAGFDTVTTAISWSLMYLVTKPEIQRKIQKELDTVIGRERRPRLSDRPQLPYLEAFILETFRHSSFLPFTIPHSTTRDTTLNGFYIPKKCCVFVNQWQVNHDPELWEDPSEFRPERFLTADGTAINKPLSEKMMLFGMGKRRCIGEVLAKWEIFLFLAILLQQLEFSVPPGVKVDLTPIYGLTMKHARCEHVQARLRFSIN

CYP1A2 = biological target: T2, CYP1A2 (Homo sapiens, UniProt P05177); test: as §1; assay type: ADME; settings: read-out: Activity
T2 sequence (P05177 whole entry): T1 sequence (P05177 whole entry)

hERG (KCNH2) = hERG (KCNH2) (Homo sapiens, UniProt Q12809); test: Displacement of [3H]dofetilide from human ERG channel at 10 nM; settings: probe [3H]dofetilide, read-out: Activity
Sequence of hERG (KCNH2) (Q12809 whole entry): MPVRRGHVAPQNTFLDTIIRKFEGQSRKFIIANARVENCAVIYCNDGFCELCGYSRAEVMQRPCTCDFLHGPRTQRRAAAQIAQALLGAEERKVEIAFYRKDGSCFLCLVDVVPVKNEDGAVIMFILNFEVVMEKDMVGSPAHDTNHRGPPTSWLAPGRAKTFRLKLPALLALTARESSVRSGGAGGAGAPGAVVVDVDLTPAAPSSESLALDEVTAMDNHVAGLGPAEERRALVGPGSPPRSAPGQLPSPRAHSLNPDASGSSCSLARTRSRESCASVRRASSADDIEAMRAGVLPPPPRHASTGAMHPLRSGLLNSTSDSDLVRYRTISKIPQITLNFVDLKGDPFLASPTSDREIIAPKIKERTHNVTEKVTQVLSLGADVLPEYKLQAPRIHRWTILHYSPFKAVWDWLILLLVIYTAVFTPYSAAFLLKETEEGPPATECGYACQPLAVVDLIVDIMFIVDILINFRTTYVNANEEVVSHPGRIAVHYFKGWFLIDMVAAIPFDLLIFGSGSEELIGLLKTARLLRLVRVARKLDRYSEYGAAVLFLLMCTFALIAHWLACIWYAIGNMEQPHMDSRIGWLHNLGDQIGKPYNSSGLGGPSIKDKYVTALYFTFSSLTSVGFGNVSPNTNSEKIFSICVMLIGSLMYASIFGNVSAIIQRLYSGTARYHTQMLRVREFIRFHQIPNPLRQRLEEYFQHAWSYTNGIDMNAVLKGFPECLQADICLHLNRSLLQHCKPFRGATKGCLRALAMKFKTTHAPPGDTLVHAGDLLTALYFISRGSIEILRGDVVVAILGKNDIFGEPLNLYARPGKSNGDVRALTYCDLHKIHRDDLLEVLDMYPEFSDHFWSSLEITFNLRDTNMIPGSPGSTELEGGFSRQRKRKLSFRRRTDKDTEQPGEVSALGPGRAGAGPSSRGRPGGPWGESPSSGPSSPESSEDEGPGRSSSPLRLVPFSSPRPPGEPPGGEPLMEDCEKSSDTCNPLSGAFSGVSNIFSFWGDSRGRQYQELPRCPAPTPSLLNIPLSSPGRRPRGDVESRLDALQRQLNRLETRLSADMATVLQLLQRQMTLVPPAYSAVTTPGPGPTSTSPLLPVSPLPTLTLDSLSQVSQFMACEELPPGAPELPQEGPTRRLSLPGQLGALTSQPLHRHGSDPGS

Sequence of Cytochrome P450 3A4 (P08684 whole entry): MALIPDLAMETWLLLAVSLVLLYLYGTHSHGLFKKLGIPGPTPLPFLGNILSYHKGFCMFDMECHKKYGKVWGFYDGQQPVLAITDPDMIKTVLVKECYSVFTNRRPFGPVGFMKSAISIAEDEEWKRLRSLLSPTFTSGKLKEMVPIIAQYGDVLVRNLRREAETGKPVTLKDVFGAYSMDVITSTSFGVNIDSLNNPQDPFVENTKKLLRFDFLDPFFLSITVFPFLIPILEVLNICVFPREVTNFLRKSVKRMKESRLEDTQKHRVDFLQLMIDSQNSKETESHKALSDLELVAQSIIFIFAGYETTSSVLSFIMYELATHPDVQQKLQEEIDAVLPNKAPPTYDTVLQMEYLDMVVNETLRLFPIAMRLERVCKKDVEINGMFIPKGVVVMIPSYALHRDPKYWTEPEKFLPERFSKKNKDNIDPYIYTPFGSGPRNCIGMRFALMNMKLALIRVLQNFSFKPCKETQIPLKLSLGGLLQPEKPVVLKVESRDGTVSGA
Sequence of Voltage-gated inwardly rectifying potassium channel KCNH2 (Q12809 whole entry): as the sequence (Q12809 whole entry) above
Sequence of Cytochrome P450 2C9 (P11712 whole entry): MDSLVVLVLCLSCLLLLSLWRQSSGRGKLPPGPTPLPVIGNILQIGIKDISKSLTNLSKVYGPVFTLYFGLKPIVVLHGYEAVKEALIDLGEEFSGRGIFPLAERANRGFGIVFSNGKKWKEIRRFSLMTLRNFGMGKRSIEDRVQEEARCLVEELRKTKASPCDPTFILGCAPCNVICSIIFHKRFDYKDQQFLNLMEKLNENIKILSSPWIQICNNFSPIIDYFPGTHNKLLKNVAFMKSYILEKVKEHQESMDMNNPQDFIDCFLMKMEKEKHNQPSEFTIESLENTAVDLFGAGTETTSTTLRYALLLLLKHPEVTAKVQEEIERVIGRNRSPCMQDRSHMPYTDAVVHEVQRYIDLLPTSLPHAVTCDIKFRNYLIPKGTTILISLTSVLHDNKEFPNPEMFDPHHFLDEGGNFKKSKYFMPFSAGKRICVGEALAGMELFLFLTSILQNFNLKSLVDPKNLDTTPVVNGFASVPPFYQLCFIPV
Sequence of Cytochrome P450 2D6 (P10635 whole entry): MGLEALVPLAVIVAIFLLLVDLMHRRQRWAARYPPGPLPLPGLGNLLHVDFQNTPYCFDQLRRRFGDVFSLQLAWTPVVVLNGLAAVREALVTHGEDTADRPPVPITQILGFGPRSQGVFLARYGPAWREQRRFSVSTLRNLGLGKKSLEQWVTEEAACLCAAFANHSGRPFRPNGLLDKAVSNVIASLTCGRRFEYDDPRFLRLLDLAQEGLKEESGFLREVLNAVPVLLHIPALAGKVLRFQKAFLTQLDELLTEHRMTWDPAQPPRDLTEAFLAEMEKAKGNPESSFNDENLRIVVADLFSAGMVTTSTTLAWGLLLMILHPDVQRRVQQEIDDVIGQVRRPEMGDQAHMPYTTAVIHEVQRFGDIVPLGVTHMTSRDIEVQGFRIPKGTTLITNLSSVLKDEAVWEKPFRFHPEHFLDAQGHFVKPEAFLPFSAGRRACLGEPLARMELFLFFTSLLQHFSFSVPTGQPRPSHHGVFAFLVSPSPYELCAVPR

Row | Structure (SMILES) | IC50 [1] [µM] | IC50 [2] [µM] | also measured
1 | Cc1nnc(-c2ccc(OCc3cccc(Cl)c3)c(Cl)c2)o1 | 6.6 | 95 | –
2 | COC(=O)c1ccc(OCc2cccc(Cl)c2)cc1 | 3.1 | 12 | –
3 | COC(=O)c1ccc(CNc2cccc(Cl)c2)cc1 | 57 | > 64 | –
4 | COC(=O)c1ccc(NC(=O)c2cccc(Cl)c2)c(C)c1 | > 64 | > 64 | –
5 | NC(=O)c1nnc(-c2cc(Cl)c(OCc3cccc(Cl)c3)cn2)o1 | 2.7 | 60 | –
6 | CC(CO)NC(=O)c1ccc(OCc2cc(Cl)ccn2)c(Cl)c1 (stereo unspecified) | 4.6 | 43 | MIC (Haemophilus influenzae [3]): 32 µg/mL (≈ 90.1 µM); MIC (Haemophilus influenzae [4]): 2 µg/mL (≈ 5.63 µM); MIC (Streptococcus pneumoniae): 32 µg/mL (≈ 90.1 µM)
7 | O=C(O)Cc1nnc(-c2ccc(OCc3cccc(Cl)c3)c(Cl)c2)o1 | 11 | 110 | –
8 | CN1CCN(C(=O)c2ccc(OCc3cccc(Cl)c3)c(Cl)c2)CC1 | 0.15 | 2.3 | –
9 | Cc1cc(C(=O)N2CCC(C(N)=O)CC2)ccc1OCc1cccc(Cl)c1 | 0.15 | – | –
10 | Cc1ccc(C(=O)N2CCN(S(=O)(=O)c3ccc(OCc4cccc(Cl)c4)c(Cl)c3)CC2)cc1 | 1.9 | 12 | –
11 | COC(=O)c1ccc(OCc2ccc(F)c(F)c2)c(Cl)c1 | 0.0087 | 0.12 | –
12 | Cc1cc(C(=O)N2CCN(C)CC2)ccc1C(CO)c1cccc(Cl)c1 (stereo unspecified) | > 64 | > 64 | –
13 | Nc1nnc(-c2cc(Cl)c(OCc3cccc(Cl)c3)cn2)o1 | – | 50 | –
14 | O=C(NCCN1CCOCC1)c1ccc(OCc2cccc(Cl)c2)c(Cl)c1 | 14 | 438 | –
15 | COC(=O)c1ccc([C@@H](O)[C@H](O)c2cccc(Cl)c2)c(C)c1 | > 64 | > 64 | –
16 | Clc1cccc(COc2ccc(-c3nnco3)cc2Cl)c1 | 11 | 156 | –
17 | CSc1nnc(-c2ccc(OCc3cccc(Cl)c3)c(Cl)c2)o1 | 5.5 | 81 | –
18 | Clc1cccc(COc2cnc(-c3nnco3)cc2Cl)c1 | 12 | 97 | Papp [5]: 5.31 ×10⁻⁶ cm/s; CLint scaled [7]: < 10.1 mL/min/kg; inhibition at 3 µM (CYP1A2): 38%
19 | CN1CCN(C(=O)c2ccc(S(=O)(=O)Nc3cccc(Cl)c3)c(Cl)c2)CC1=O | > 64 | > 64 | –
20 | CCn1nccc1NC(=O)c1cc(Cl)c(OCc2cccc(Cl)c2)cn1 | 24 | 34 | –
21 | CC(=O)NC1CCN(Cc2ccc(OCc3ccc(Cl)cc3)c(Cl)c2)C1 (stereo unspecified) | 0.24 | 2.2 | Activity [5]: Not Active; inhibition at 0.01 µM (hERG (KCNH2)): 89%; CLint scaled [7]: 9.63 mL/min/kg
22 | O=C(NCCCCO)c1ccc(OCc2cccc(Cl)c2)c(Cl)c1 | 22 | 254 | Papp [5]: 1.22 ×10⁻⁶ cm/s; Activity (Cytochrome P450 2C9): Not Active; Ki [6]: > 0.1 µM; Activity (Cytochrome P450 2D6): Not Active; Activity (Cytochrome P450 3A4): Not Active; CLint scaled [7]: < 7.6 mL/min/kg; Activity (Cytochrome P450 1A2): Not Active

Second part, led by results:

Row | IC50 [1] [µM] | IC50 [2] [µM] | Structure (SMILES) | also measured
23 | 11 | 76 | CCc1nnc(-c2ccc(OCc3cccc(Cl)c3)c(Cl)c2)o1 | –
24 | 29 | 483 | CC(CO)NC(=O)c1ccc(OCc2cccc(Cl)c2)c(Cl)c1 (stereo unspecified) | MIC (Haemophilus influenzae [3]): > 32 µg/mL; MIC (Haemophilus influenzae [4]): 4 µg/mL (≈ 11.3 µM); MIC (Streptococcus pneumoniae): 32 µg/mL (≈ 90.3 µM)
25 | > 64 | > 64 | COC(=O)c1ccc(C(=O)Nc2cccc(Cl)c2)cc1 | –
26 | 0.13 | 0.2 | COC(=O)c1ccc(/C=C/c2cccc(Cl)c2)c(C)c1 | –
27 | 1.7 | 126 | NC(=O)Cc1nnc(-c2ccc(OCc3cccc(Cl)c3)c(Cl)c2)o1 | –
28 | 2.6 | 81 | NC(=O)c1nnc(-c2ccc(OCc3cccc(Cl)c3)c(Cl)c2)o1 | –
29 | 0.017 | 0.091 | COC(=O)c1ccc(OCc2cccc(Cl)c2)c(Cl)c1 | –
30 | 3.5 | 6.1 | COC(=O)c1ccc(NCc2cccc(Cl)c2)c(C)c1 | –
31 | 0.17 | 3.5 | COC(=O)c1ccc(N(C)Cc2cccc(Cl)c2)c(C)c1 | –
32 | > 64 | > 64 | Cc1cc(C(=O)N2CCN(C)C(=O)C2)ccc1NS(=O)(=O)c1cccc(Cl)c1 | –
33 | 0.067 | 3.7 | Cc1cc(C(=O)N2CCN(C(=O)C3CCCO3)CC2)ccc1OCc1cccc(Cl)c1 (stereo unspecified) | Papp [5]: 10.8 ×10⁻⁶ cm/s; Activity (Cytochrome P450 2C9): Not Active; Ki [6]: 0.0239 µM; Activity (Cytochrome P450 2D6): Not Active; Activity (Cytochrome P450 3A4): Not Active; CLint scaled [7]: 55.1 mL/min/kg; Activity (Cytochrome P450 1A2): Not Active
34 | 0.28 | 11 | Cc1cc(C(=O)N2CCN(C(=O)C3CCCO3)CC2)ccc1CC(O)c1cccc(Cl)c1 (stereo unspecified) | –
35 | 0.36 | 46 | Cc1cc(C(=O)N2CCC(C(N)=O)CC2)ccc1CCc1cccc(Cl)c1 | –
36 | > 64 | > 64 | Cn1c(-c2cccc(Cl)c2)nc(=O)c2cc(C(=O)N3CCC(C(N)=O)CC3)ccc21 | –
37 | 1.9 | 79 | CCN(CC)CCN(C)S(=O)(=O)c1ccc(OCc2cccc(Cl)c2)c(Cl)c1 | –
38 | 1.3 | 28 | CC(=O)Nc1nnc(-c2ccc(OCc3cccc(Cl)c3)c(Cl)c2)o1 | –
39 | 0.034 | 0.097 | COC(=O)c1ccc(OCc2cccc(Cl)c2)c(C)c1 | –

Row | IC50 [1] [µM] | IC50 [2] [µM] | Structure (SMILES) | also measured
40 | 0.03 | 0.16 | COC(=O)c1ccc(OCc2cc(F)cc(F)c2)c(Cl)c1 | –
41 | 0.84 | – | CN1CCN(C(=O)c2ccc(COc3cccc(Cl)c3)c(Cl)c2)CC1 | –
42 | 0.038 | 1.3 | CN1CCN(C(=O)c2ccc(OCc3cccc(Cl)c3)c(Cl)c2)CC1=O | Papp [5]: 16.4 ×10⁻⁶ cm/s; Activity (Cytochrome P450 2C9): Not Active; Ki [6]: 0.0372 µM; Activity (Cytochrome P450 2D6): Not Active; Activity (Cytochrome P450 3A4): Not Active; CLint scaled [7]: < 7.6 mL/min/kg; Activity (Cytochrome P450 1A2): Not Active
43 | > 64 | > 64 | CN1CCN(C(=O)c2ccc(CS(=O)(=O)c3cccc(Cl)c3)c(Cl)c2)CC1=O | –
44 | 16 | 34 | O=C(NCCCCO)c1ccc(OCc2cc(Cl)ccn2)c(Cl)c1 | –
45 | 3.1 | 87 | OCCc1nnc(-c2ccc(OCc3cccc(Cl)c3)c(Cl)c2)o1 | –
46 | 8 | 65 | O=C(NCCN1CCOCC1)c1cc(Cl)c(OCc2cccc(Cl)c2)cn1 | MIC (Haemophilus influenzae [3]): 32 µg/mL (≈ 78 µM); MIC (Haemophilus influenzae [4]): 1 µg/mL (≈ 2.44 µM); MIC (Streptococcus pneumoniae): 8 µg/mL (≈ 19.5 µM)
47 | 1.5 | 28 | O=C(NC1CCC(O)CC1)c1cc(Cl)c(OCc2cccc(Cl)c2)cn1 (stereo unspecified) | –
48 | 6.5 | > 64 | COC(=O)c1ccc([C@H](O)[C@@H](O)c2cccc(Cl)c2)c(C)c1 | –
49 | 1.5 | 36 | C[S+]([O-])c1nnc(-c2ccc(OCc3cccc(Cl)c3)c(Cl)c2)o1 (stereo unspecified) | –
50 | 57 | 393 | O=C(NCC1CC1)c1ccc(OCc2cccc(Cl)c2)c(Cl)c1 | –
51 | 30 | 50 | O=C(NCC1CC1)c1cc(Cl)c(OCc2cccc(Cl)c2)cn1 | –
52 | > 64 | > 64 | COC(=O)c1ccc(CN(C)c2cccc(Cl)c2)cc1 | –
53 | 2.3 | 42 | Nc1nnc(-c2ccc(OCc3cccc(Cl)c3)c(Cl)c2)o1 | –
54 | 2.1 | 53 | CS(=O)(=O)c1nnc(-c2ccc(OCc3cccc(Cl)c3)c(Cl)c2)o1 | MIC (Haemophilus influenzae [3]): 32 µg/mL (≈ 80.1 µM); MIC (Haemophilus influenzae [4]): 1 µg/mL (≈ 2.5 µM); MIC (Streptococcus pneumoniae): > 32 µg/mL
55 | 2.4 | 23 | CN1CCN(C(=O)c2ccc(C[S+]([O-])c3cccc(Cl)c3)c(Cl)c2)CC1=O (stereo unspecified) | –
